Results on three compounds are retold here after US20100279918A1, “Chimeric Constructs Between Cancer-Homing Peptides and Cell-Penetrating Peptides Coupled to Anticancer Drugs and/or Diagnostic Agent/Agents” (Burnham Institute for Medical Research, priority 2006, published 2010).

One series concerns MCF-7 cells. Kind of series: Toxicity study (CellTiter-Glo). Here is the method:
FIG. 11. Cytotoxicity study of pVEC (SEQ ID NO:6) in MCF-7 cell line. Cells were exposed to different concentrations of pVEC solution in 150 μl of 1% FBS containing media and incubated for 2 h or 48 h at 37° C. The plate was cooled to room temperature, CellTiter-Glo® Reagent (150 μl) was added and the luminescence was measured. The percent of viable cells was compared to the non-treated cells.
FIG. 12. Cytotoxicity study of Cbl and Cbl conjugated peptides in MCF-7 cell line. Cells were exposed to different concentrations of Cbl, Cbl-pVEC (SEQ ID NO:6), Cbl-CREKA-pVEC (SEQ ID NO:22) and Cbl-PEGA-pVEC (SEQ ID NO:21) (0, 1, 5, 55, 100, 150, 200, 400 and 800 (only with Cbl) μM) solution in 150 μl of 1% FBS containing complete media and incubated for 3 h at 37° C. After that 150 μl of 10% FBS containing media was added and the cells were incubated additionally for 45 h at 37° C. (altogether 48 h). The plate was cooled to room temperature, CellTiter-Glo® Reagent (150 μl) was added and the luminescence was measured. The percent of viable cells was compared to the non-treated cells. IC50 values were calculated using GraphPad Prism 4 software.
MCF-7 and MDA-MB-231 cells (20 000 cells/well) were seeded in a 48 well plate two days before the experiment. The cells were exposed to drug in different concentration in full media containing 1% FBS for 3 h where after 10% FBS containing full media was added to achieve 5% FBS containing media and then incubated 45 or 69 h at 37° C. The plate was cooled to room temperature and CellTiter-Glo® Reagent (Promega) was added. The plate was incubated for 10 min at room temperature where after the luminescence was measured.

The subject of the next series is MDA-MB-231 cells. Kind of series: Toxicity study (CellTiter-Glo). In kind it is cell-based, human. Here is the method:
FIG. 13. Cytotoxicity study of Cbl and Cbl conjugated peptides in MDA-MB-231 cell line. […] (altogether 48 h). […] IC50 values were calculated using GraphPad Prism 4 software.

Another series has as its system tumor mice. Particulars: about 300 μg per mouse for 15 days; cited from earlier work.
The test system of series [1] is MDA-MB-435 orthotopic xenograft tumors. Description: Treatment of mice bearing MDA-MB-435 tumors with Cbl-peptide conjugates (tumor growth). In kind it is in vivo, nude Balb/c mice. Particulars: 15 μg Cbl-equivalent/mouse i.v. every other day, seven times; p<0.01 vs controls. As to the method:
FIG. 26. The inhibition of MDA-MB-435 tumor growth in mice with the Cbl-CREKA-pVEC (SEQ ID NO:22) conjugates. The MDA-MB-435 orthotopic xenografted mice (8 mice/group) were systemically treated with 15 μg of Cbl equivalent of Cbl-CREKA-pVEC (SEQ ID NO:22) and of the controls.
The orthotopic xenografted breast tumors were established by injecting 1×10^6 MDA-MB-435 human breast cancer cells into the mammary fat pad of nude Balb/c mice. Treatment started when mean tumor volumes reached about 100 mm^3. Mice with size-matched tumors were randomized into five groups (eight animals per group): Cbl-CREKA-pVEC (SEQ ID NO:22), Cbl plus CREKA-pVEC, Cbl-CREKA (SEQ ID NO:1), Cbl-pVEC (SEQ ID NO:6) and PBS. Mice were treated intravenously with 15 μg of Cbl-equivalent/mouse every other day for seven times. Tumor size was measured every three days. The mice were monitored for weight loss. The animal experiments reported here were approved by the Animal Research Committee of Burnham Institute for Medical Research.

Where [2] appears, read: read-out: IC50 value (cytotoxicity), MCF-7, 3 h in 1% FBS media, then 45 h (altogether 48 h).
[3] abbreviates: MDA-MB-231, 3 h in 1% FBS media, then 45 h (altogether 48 h), read-out: IC50 value (cytotoxicity).

Entries after “also recorded” stand apart in the source; their conditions may differ. Like-named read-outs stand apart in the source and are kept apart here. Where a SMILES comes first, the peptide text is derived from it. Bridges are numbered along the chain shown (N, C = ends). The star is where a group is joined. Chlorambucil = O=C(CCCc1ccc(N(CCCl)CCCl)cc1)*

On to `O=C(O)CCCc1ccc(N(CCCl)CCCl)cc1` [Cbl, reference compound], for which the IC50 in the series with MCF-7 cells (Homo sapiens, MCF7, read-out: IC50 value (cytotoxicity)) worked out at 128 µM; in the series with MDA-MB-231 cells (Homo sapiens, MDA-MB-231, read-out: IC50 value (cytotoxicity)), 164 µM. In the series on tumor mice, the ED15d dose was 15 mg/kg.

As to `CC[C@H](C)[C@H](NC(=O)[C@H](CCCNC(=N)N)NC(=O)[C@H](CCCNC(=N)N)NC(=O)[C@H](CCCNC(=N)N)NC(=O)[C@H](CC(C)C)NC(=O)[C@@H](NC(=O)[C@@H](NC(=O)[C@H](CC(C)C)NC(=O)[C@H](CC(C)C)NC(=O)[C@H](C)NC(=O)[C@H](CCCCN)NC(=O)[C@H](CCC(=O)O)NC(=O)[C@H](CCCNC(=N)N)NC(=O)[C@H](CS)NC(=O)CCCc1ccc(N(CCCl)CCCl)cc1)[C@@H](C)CC)[C@@H](C)CC)C(=O)N[C@@H](CCCNC(=N)N)C(=O)N[C@@H](CCCCN)C(=O)N[C@@H](CCC(N)=O)C(=O)N[C@@H](C)C(=O)N[C@@H](Cc1c[nH]cn1)C(=O)N[C@@H](C)C(=O)N[C@@H](Cc1c[nH]cn1)C(=O)N[C@@H](CO)C(=O)N[C@@H](CCCCN)C(N)=O` [Cbl-CREKA-pVEC] (Chlorambucil-CREKALLIILRRRIRKQAHAHSK-NH2), the IC50 with MCF-7 cells (setting [2]) was determined as 10.5 µM; in the series with MDA-MB-231 cells (setting [3]) it was 8.2 µM. Moreover, in series [1], the “inhibition of tumor growth compared with control groups” value is on record as “significant decrease in tumor growth; also recorded: significant inhibition of tumor growth”.

Take `CC[C@H](C)[C@H](NC(=O)[C@H](CCCNC(=N)N)NC(=O)[C@H](CCCNC(=N)N)NC(=O)[C@H](CCCNC(=N)N)NC(=O)[C@H](CC(C)C)NC(=O)[C@@H](NC(=O)[C@@H](NC(=O)[C@H](CC(C)C)NC(=O)[C@H](CC(C)C)NC(=O)[C@@H]1CSSC[C@H](NC(=O)CCCc2ccc(N(CCCl)CCCl)cc2)C(=O)N2CCC[C@H]2C(=O)NCC(=O)N2CCC[C@H]2C(=O)N[C@@H](CCC(=O)O)C(=O)NCC(=O)N[C@@H](C)C(=O)NCC(=O)N1)[C@@H](C)CC)[C@@H](C)CC)C(=O)N[C@@H](CCCNC(=N)N)C(=O)N[C@@H](CCCCN)C(=O)N[C@@H](CCC(N)=O)C(=O)N[C@@H](C)C(=O)N[C@@H](Cc1c[nH]cn1)C(=O)N[C@@H](C)C(=O)N[C@@H](Cc1c[nH]cn1)C(=O)N[C@@H](CO)C(=O)N[C@@H](CCCCN)C(N)=O` [Cbl-PEGA-pVEC] (Chlorambucil-CPGPEGAGCLLIILRRRIRKQAHAHSK-NH2; disulfide 1-9): the values for the 50% inhibitory concentration (IC50) in the series on MCF-7 cells (setting [2]) and with MDA-MB-231 cells (setting [3]) were 29.9 µM and 37.4 µM, respectively.
